Results taken from patent US11666578B2, “Small molecule inhibitors of CDK12/CDK13” (The Scripps Research Institute, priority 2018, dated 2023).
≈ marks a conversion by molar mass, not a printed value. Where “and” joins values, the source holds several entries; their conditions need not be identical. Equal values may be shown once. Read-outs that look alike come from different tables or passages of the source.

Columns and labels:
U87 cell line = assay: Cell proliferation / growth inhibition, U87, 72 h (Cell-Titer Glo); format: cell-based; details: Homo sapiens, U-87 MG
MDA-MB-231 cell line = assay: Cell proliferation / growth inhibition, MDA-MB-231, 72 h (Cell-Titer Glo); format: cell-based; details: Homo sapiens
[1] = Solubility in pH 7.4 phosphate buffered saline; format: physicochemical; details: aqueous buffer
[2] = Microsome stability, human liver microsomes; format: in vitro ADME; details: read-out: Microsome stability t1/2 (H)
[3] = Microsome stability, mouse liver microsomes; format: in vitro ADME; details: read-out: Microsome stability t1/2
[4] = Microsome stability, rat liver microsomes; format: in vitro ADME; details: read-out: Microsome stability t1/2 (R)
CYP 1A2 = biological target: T1, CYP 1A2 (Homo sapiens, UniProt P05177); assay: Cytochrome P450 inhibition assay, 1A2; format: in vitro ADME
T1 sequence (P05177 1-516): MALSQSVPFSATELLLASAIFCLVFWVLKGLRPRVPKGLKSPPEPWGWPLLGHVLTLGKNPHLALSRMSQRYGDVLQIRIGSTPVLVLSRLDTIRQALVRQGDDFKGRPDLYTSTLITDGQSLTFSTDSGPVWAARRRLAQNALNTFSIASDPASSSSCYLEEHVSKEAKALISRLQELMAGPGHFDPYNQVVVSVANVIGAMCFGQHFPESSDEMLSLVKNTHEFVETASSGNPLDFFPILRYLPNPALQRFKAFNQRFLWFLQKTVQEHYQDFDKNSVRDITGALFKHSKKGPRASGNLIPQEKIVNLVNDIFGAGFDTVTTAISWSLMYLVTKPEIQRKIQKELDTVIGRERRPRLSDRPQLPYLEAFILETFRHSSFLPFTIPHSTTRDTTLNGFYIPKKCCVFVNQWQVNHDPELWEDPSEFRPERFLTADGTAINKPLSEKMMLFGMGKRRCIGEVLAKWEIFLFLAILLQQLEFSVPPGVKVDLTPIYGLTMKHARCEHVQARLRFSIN

CYP 2C9 = CYP 2C9 (Homo sapiens, UniProt P11712); assay: Cytochrome P450 inhibition assay, 2C9; format: in vitro ADME
Sequence of CYP 2C9 (P11712 whole entry): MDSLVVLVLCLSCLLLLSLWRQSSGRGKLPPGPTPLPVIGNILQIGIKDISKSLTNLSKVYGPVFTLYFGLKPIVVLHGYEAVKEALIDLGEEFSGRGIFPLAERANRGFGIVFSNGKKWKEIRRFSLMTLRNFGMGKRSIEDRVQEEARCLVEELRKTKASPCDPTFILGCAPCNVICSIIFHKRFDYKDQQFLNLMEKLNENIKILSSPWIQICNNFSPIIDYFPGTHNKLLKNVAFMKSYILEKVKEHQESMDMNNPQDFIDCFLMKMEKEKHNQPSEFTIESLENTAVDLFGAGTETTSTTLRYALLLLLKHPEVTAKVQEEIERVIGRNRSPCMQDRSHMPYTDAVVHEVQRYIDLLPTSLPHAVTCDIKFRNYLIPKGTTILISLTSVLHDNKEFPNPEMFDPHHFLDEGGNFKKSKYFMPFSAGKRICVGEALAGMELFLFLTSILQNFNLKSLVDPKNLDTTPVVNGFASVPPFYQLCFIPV

CYP 2D6 = CYP 2D6 (Homo sapiens, UniProt P10635); assay: Cytochrome P450 inhibition assay, 2D6; format: in vitro ADME
Sequence of CYP 2D6 (P10635 whole entry): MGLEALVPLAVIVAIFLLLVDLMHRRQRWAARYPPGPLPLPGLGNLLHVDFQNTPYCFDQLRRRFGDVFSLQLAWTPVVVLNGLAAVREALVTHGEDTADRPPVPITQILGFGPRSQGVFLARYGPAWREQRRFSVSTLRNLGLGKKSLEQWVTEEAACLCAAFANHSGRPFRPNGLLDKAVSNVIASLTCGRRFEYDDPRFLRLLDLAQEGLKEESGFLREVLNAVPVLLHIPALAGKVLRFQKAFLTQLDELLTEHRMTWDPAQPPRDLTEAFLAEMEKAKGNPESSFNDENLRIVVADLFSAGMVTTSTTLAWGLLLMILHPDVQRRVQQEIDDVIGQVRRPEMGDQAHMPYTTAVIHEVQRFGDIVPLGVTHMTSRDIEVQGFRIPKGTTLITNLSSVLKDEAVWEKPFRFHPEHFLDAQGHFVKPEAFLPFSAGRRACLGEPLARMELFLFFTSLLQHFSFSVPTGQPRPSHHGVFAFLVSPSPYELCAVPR

CYP 3A4 = CYP 3A4 (Homo sapiens, UniProt P08684); assay: Cytochrome P450 inhibition assay, 3A4; format: in vitro ADME
Sequence of CYP 3A4 (P08684 whole entry): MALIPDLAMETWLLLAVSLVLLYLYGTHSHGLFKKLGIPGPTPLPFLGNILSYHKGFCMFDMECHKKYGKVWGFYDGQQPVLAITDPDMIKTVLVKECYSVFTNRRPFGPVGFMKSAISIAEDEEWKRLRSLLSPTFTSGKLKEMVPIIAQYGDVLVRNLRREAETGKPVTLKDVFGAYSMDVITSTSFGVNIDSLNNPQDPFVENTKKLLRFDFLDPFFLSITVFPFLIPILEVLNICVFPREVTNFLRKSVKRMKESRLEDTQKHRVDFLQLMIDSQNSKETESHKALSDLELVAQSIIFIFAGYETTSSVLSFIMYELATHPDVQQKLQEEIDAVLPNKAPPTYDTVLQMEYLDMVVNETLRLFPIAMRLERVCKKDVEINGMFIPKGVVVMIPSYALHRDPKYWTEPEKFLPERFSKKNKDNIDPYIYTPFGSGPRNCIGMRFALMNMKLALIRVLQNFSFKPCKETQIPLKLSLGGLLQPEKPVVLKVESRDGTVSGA

Mouse PK = format: in vivo; details: for AUC: read-out: AUCINF_dos (converted)
other CDKs (CDK panel) = assay: Selectivity in CDK panel (% of inhibition at 10 μM); format: biochemical; details: FIG. 2
Experimental: FIGS. 2a and 2b. Selectivity of selected CDK12/13 inhibitors against other CDKs (% of inhibition at 10 μM)

CK1δ = CK1δ (Homo sapiens, UniProt P48730); assay: In-house kinase inhibition assay, CK1δ; format: biochemical
Sequence of CK1δ (P48730 whole entry): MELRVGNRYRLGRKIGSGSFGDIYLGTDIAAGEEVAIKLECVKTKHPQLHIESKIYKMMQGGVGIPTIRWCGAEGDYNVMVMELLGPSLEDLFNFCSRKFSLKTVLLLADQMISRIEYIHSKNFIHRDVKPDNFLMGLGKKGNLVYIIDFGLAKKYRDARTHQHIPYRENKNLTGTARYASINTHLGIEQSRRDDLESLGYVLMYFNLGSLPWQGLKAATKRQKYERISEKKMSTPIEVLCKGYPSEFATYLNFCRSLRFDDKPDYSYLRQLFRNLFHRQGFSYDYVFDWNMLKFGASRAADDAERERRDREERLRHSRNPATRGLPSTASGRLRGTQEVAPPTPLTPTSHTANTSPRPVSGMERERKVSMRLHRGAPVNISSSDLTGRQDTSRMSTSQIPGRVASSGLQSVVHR
From the text: (§1) [drawing 21] wherein the substituents W, X, Y, Z, and R^1, are as specified in the respective Table columns.

CK1ε = CK1ε (Homo sapiens, UniProt P49674); assay: In-house kinase inhibition assay, CK1ε; format: biochemical
Sequence of CK1ε (P49674 whole entry): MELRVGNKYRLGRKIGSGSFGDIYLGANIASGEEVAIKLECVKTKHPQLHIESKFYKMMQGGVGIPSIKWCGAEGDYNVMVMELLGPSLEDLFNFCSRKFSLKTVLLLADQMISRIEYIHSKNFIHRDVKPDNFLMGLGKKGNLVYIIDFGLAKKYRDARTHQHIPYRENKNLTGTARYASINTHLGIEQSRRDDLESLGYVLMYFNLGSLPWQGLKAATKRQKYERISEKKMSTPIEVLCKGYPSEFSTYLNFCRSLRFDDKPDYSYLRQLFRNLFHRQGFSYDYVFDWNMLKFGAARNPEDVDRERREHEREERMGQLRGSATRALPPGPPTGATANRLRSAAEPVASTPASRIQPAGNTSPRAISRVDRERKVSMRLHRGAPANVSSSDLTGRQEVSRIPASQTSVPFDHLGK
From the text: as §1

CDK12 = biological target: T2, CDK12 (Homo sapiens, UniProt Q9NYV4); assay: Competition binding assay, DiscoverX (Kinomescan), CDK12
T2 construct: purchased DiscoverX
T2 sequence (Q9NYV4 whole entry): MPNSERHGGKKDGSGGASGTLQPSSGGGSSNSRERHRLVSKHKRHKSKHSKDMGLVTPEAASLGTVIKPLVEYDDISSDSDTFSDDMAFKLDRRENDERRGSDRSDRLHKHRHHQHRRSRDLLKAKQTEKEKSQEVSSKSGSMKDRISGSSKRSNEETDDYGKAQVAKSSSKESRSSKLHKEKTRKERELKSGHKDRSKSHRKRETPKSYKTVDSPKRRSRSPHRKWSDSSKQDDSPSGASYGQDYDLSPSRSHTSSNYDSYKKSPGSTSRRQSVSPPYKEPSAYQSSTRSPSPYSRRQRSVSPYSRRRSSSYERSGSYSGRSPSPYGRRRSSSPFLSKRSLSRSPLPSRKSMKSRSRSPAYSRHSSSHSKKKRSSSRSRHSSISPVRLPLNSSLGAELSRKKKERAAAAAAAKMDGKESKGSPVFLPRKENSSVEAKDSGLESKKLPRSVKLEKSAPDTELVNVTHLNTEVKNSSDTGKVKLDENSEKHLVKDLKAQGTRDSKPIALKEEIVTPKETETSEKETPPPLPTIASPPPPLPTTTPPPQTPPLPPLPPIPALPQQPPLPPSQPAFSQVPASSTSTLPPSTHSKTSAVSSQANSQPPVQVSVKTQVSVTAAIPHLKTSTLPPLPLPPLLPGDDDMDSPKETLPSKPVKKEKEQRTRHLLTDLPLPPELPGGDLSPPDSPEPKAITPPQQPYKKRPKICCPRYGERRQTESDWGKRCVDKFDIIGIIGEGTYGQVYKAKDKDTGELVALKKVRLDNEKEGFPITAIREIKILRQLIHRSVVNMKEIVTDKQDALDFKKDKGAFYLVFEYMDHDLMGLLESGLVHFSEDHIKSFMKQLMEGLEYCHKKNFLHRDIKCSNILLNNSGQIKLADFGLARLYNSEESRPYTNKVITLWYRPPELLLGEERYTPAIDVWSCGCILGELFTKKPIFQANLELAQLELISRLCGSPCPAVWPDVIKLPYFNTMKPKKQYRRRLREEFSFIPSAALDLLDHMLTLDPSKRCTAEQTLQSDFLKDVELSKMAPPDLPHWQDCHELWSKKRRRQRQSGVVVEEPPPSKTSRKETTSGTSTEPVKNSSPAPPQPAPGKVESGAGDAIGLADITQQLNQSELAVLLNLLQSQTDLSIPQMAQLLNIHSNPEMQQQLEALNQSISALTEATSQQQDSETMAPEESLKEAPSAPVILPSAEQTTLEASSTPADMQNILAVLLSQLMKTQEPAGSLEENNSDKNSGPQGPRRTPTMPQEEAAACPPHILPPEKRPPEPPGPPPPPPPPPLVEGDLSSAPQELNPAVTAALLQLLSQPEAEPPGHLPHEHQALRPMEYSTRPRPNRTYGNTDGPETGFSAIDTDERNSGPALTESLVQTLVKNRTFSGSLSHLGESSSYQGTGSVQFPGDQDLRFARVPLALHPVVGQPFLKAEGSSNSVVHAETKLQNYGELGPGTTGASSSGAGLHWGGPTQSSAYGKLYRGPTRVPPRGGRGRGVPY
From the text: as §1
In addition to screening a selected set of new inhibitors in CDK12/13 enzyme assays using Kinomescan™ technology, we tested all new compounds in a mechanism of action assay, which detects inhibition of phosphorylation of serine 2 (pSer2) on the C-terminal repeat domain (CTD) of RNA pol II.

CDK13 = biological target: T3, CDK13 (Homo sapiens, UniProt Q14004); assay: Competition binding assay, DiscoverX (Kinomescan), CDK13
T3 construct: purchased DiscoverX
From the text: as §1
In addition to screening a selected set of new inhibitors in CDK12/13 enzyme assays using Kinomescan™ technology, we tested all new compounds in a mechanism of action assay, which detects inhibition of phosphorylation of serine 2 (pSer2) on the C-terminal repeat domain (CTD) of RNA pol II. […] In order to confirm that CDK12/13 inhibition is driving cell death, we also plotted the growth inhibition pIC50's with pSer2 inhibition data. There was a good correlation when using the cell proliferation data from both U87 and MDA-MB-231 cell lines (FIGS. 5 and 6).

[5] = read-out: CK1δ IC50, read-out: CK1σ IC50

solubility [1] [µM] | half-life [2] [min] | half-life [3] [min] | half-life [4] [min] | CYP inhibition 1A2 (CYP 1A2) [% inh] | CYP inhibition 2C9 (CYP 2C9) [% inh] | CYP inhibition 2D6 (CYP 2D6) [% inh] | CYP inhibition 3A4 (CYP 3A4) [% inh] | IC50 (CK1δ; [5]) [nM] | IC50 (CK1ε) [nM] | SMILES | also measured
0.8 (≈ 0.376 µg/mL) | 16 | 6 | 9 | 97 | 89 | 57 | 89 | – | – | Fc1ccc2[nH]c(CNc3nc(N4CCOCC4)nc4c3ncn4-c3cscn3)nc2c1F [Compound 4, N-((4,5-difluoro-1H-benzo[d]imidazol-2-yl)methyl)-2-morpholino-9-(thiazol-4-yl)-9H-purin-6-amine] | GI50 (U87 cell line): < 2 nM; GI50 (MDA-MB-231 cell line): < 2 nM
0.7 (≈ 0.371 µg/mL) | 27 | 18 | 25 | 39 | 54 | 29 | 54 | – | – | Cn1cc(-n2cnc3c(NCc4nc5cc(Cl)c(Cl)cc5[nH]4)nc(N4CCOC[C@H]4CO)nc32)cn1 [Compound 7, (R)-(4-(6-(((5,6-dichloro-1H-benzo[d]imidazol-2-yl)methyl)amino)-9-(1-methyl-1H-pyrazol-4-yl)-9H-purin-2-yl)morpholin-3-yl)methanol] | AUC % Extrap (Mouse PK; IP 20 mg/kg): 1.0%; CI_obs (Mouse PK; IP 20 mg/kg): 61.6 mL/min/kg; Tmax (Mouse PK; IP 20 mg/kg): 60 min; T1/2 (Mouse PK; IP 20 mg/kg, 10/10/80 DMSO/Tween-80/water): 223 min; AUC (Mouse PK; in vivo, IP 20 mg/kg): 5530 ng·h/mL
– | – | – | – | – | – | – | – | – | – | Fc1cccc(-n2cnc3c(NCc4nc5c(F)c(F)ccc5[nH]4)nc(N4CCOCC4)nc32)c1 [SR-3029] | Selectivity in CDK panel (other CDKs (CDK panel)): good selectivity
0.8 (≈ 0.373 µg/mL) | 39 | 11 | 18 | 5 | 23 | 2 | 55 | > 9900 | 6500 | Cn1cc(-n2cnc3c(NCc4nc5cc(F)c(F)cc5[nH]4)nc(N4CCOCC4)nc32)cn1 [Compound 2, N-((5,6-difluoro-1H-benzo[d]imidazol-2-yl)methyl)-9-(1-methyl-1H-pyrazol-4-yl) morpholino-9H-purin-6-amine] | –
0.8 (≈ 0.424 µg/mL) | 21 | 13 | 19 | 42 | 69 | 42 | 77 | – | – | Cn1cc(-n2cnc3c(NCc4nc5cc(Cl)c(Cl)cc5[nH]4)nc(N4CCOC[C@@H]4CO)nc32)cn1 [Compound 6, (S)-(4-(6-(((5,6-dichloro-1H-benzo[d]imidazol-2-yl)methyl)amino)-9-(1-methyl-1H-pyrazol-4-yl)-9H-purin-2-yl)morpholin-3-yl)methanol] | –
3.6 (≈ 1.68 µg/mL) | 13 | 7 | 11 | 5 | 23 | 2 | 55 | 4740 | 1250 | Cc1cc(-n2cnc3c(NCc4nc5c(F)c(F)ccc5[nH]4)nc(N4CCOCC4)nc32)no1 [Compound 3, N-((4,5-difluoro-1H-benzo[d]imidazol-2-yl)methyl)-9-(5-methylisoxazol-3-yl)-2-morpholino-9H-purin-6-amine] | Kd (CDK12): 22 nM; Kd (CDK13): 4 nM
6.1 (≈ 2.85 µg/mL) | 22 | 9 | 20 | 10 | 23 | −3 | 56 | 8600 | 4600 | Cn1cc(-n2cnc3c(NCc4nc5c(F)c(F)ccc5[nH]4)nc(N4CCOCC4)nc32)cn1 [Compound 1, N-((4,5-difluoro-1H-benzo[d]imidazol-2-yl)methyl)-9-(1-methyl-1H-pyrazol-4-yl) morpholino-9H-purin-6-amine] | Kd (CDK12): 14 nM; Kd (CDK13): 5 nM; AUC % Extrap (Mouse PK; IP 30 mg/kg): 0.1%; CI_obs (Mouse PK; IP 30 mg/kg): 13.4 mL/min/kg; AUC(0-t) (Mouse PK; in vivo, IP 30 mg/kg): 25400 ng·h/mL and 55 µM·h; half-life (Mouse PK; in vivo, IP 30 mg/kg, 10/10/80 DMSO/Tween-80/water): 179 min; AUC (Mouse PK; in vivo, IP 30 mg/kg): 25500 ng·h/mL; Cmax (Mouse PK; in vivo, IP 30 mg/kg, read-out: Cmax): 9330 ng/mL and 20 µM; Tmax (Mouse PK; in vivo, IP 30 mg/kg, read-out: Tmax): 60 min
– | – | – | – | – | – | – | – | – | – | COc1cc2nc(CNc3nc(N4CCOCC4)nc4c3ncn4-c3cnn(C)c3)[nH]c2cc1Cl [Compound 10] | IC50 (CK1δ; read-out: CK1σ IC50): 7730 nM
– | – | – | – | – | – | – | – | 419 | 632 | Fc1ccc2[nH]c(CNc3nc(N4CCOCC4)nc4c3ncn4-c3cncs3)nc2c1F [Compound 8, N-((4,5-difluoro-1H-benzo[d]imidazol-2-yl)methyl)-2-morpholino-9-(thiazol-5-yl)-9H-purin-6-amine] | –
– | – | – | – | – | – | – | – | 400 | 1070 | Fc1ccc2[nH]c(CNc3nc(N4CCOCC4)nc4c3ncn4-c3nccs3)nc2c1F [Compound 9, N-((4,5-difluoro-1H-benzo[d]imidazol-2-yl)methyl)-2-morpholino-9-(thiazol-2-yl)-9H-purin-6-amine] | –
